{"source": "patent US6770020B2", "about": "(priority 2001, dated 2004)", "key": {"[1]": {"tested_on": "human glioblastoma cells (TB 10)", "assay": "TOF-SIMS analysis of Gd in individual cells", "assay_type": "cell-based", "from_the_text": "Time of Flight Secondary Ion Mass-Spectrometry (TOF-SIMS), another technique for microchemical analysis^(22) was utilized to validate data from MEPHISTO spectromicroscopy, in addition to the ICP-MS data. Cell samples were bombarded with either 15 or 25 keV Ga^+ ions, focused in a microscopic beam, which induced desorption of the surface atoms. The emitted ions were then accelerated, and detected by a high resolution mass spectrometer. By scanning the microscopic Ga ion beam, TOF-SIMS produced images of the cell surface, and distribution maps of specific element isotopes, with a spatial resolution of […]. High resolution mass spectra were obtained from microscopic areas, selected as the region of interest in the cell images, to allow quantitative comparison of Gd concentration in sub-cellular regions.\nThe results obtained in MEPHISTO were corroborated by the TOF-SIMS) data, an independent technique to evaluate elemental distributions at a microscopic scale. Two cells were studied from one of the etched 72-hour exposure samples used in the MEPHISTO experiment. Note in the table that the concentration of Gd is consistently higher in nuclei than in cytoplasm.\nTOF-SIMS analysis of a non-etched cell at the nucleus position (also Gd-exposed for 72 hours), was performed before and after strong sputtering to probe the Gd concentration on the membrane and inside the nucleus. The total Gd ion yield, calculated as for the first column of Table 2, gave 0.055 cts/s on the unsputtered sample.\nAfter 30 second sputtering (with 25 keV Ga˜ ions) to remove surface contamination, the total Gd ion yield from the cell membrane was 0.182 cts/s. After 16 minute sputtering to penetrate about […] into the nucleus, the total Gd ion yield was 1.844 cts/s."}, "[2]": {"tested_on": "human glioblastoma cells (TB 10)", "assay": "ICP-MS Gd release/retention after Gd-DTPA wash-out", "conditions": "10 mg/ml 72 hours"}, "[3]": {"conditions": "rats; cited from earlier work"}, "[4]": {"conditions": "higher concentrations and prolonged exposure; cited from earlier work"}, "[5]": {"tested_on": "human glioblastoma cells (TB 10)", "assay": "Gd-DTPA toxicity by cell counting", "assay_type": "cell-based", "procedure": "Two effects that may affect the Gd-DTPA uptake kinetics were examined: compound toxicity and cell density. Three independent series of cell cultures were grown at different densities and exposed for up to 120 hours. Cell counting performed at the end of the incubation time either in control or in Gd-treated cultures gave the same cell number.\nIn addition, some of the cells exposed to Gd-DTPA for 120 hours were re-plated."}, "[6]": {"conditions": "Cell 1, Cytoplasm, 72 hours exposure"}, "[7]": {"conditions": "Cell 1, Nucleus, 72 hours exposure"}, "[8]": {"conditions": "Cell 2, Cytoplasm, 72 hours exposure"}, "[9]": {"conditions": "Cell 2, Nucleus, 72 hours exposure"}}, "note": "“Also recorded” adds a separate entry of the source."}
{"molecule": "O=C([O-])CN(CCN(CC(=O)[O-])CC(=O)O)CCN(CC(=O)[O-])CC(=O)O.[Gd+3]", "note": "[Gd-DTPA, gadolinium diethylene triamine pentaacetic acid]", "values": [{"measurement": "Ratio nucleus:cytoplasm, ^155Gd", "setting": "[1]; Cell 1, 72 hours exposure", "result": 2.51}, {"measurement": "Ratio nucleus:cytoplasm, ^155GdO", "setting": "[1]; Cell 1, 72 hours exposure", "result": 2.52}, {"measurement": "Ratio nucleus:cytoplasm, ^156Gd", "setting": "[1]; Cell 1, 72 hours exposure", "result": 1.89}, {"measurement": "Ratio nucleus:cytoplasm, ^156GdO", "setting": "[1]; Cell 1, 72 hours exposure", "result": 2.03}, {"measurement": "Ratio nucleus:cytoplasm, ^157GdO", "setting": "[1]; Cell 1, 72 hours exposure", "result": 2.06}, {"measurement": "Ratio nucleus:cytoplasm, ^158Gd", "setting": "[1]; Cell 1, 72 hours exposure", "result": 1.53}, {"measurement": "Ratio nucleus:cytoplasm, ^160Gd", "setting": "[1]; Cell 1, 72 hours exposure", "result": 1.99}, {"measurement": "Ratio nucleus:cytoplasm, ^160GdO", "setting": "[1]; Cell 1, 72 hours exposure", "result": 2.00}, {"measurement": "Ratio nucleus:cytoplasm, total Gd ion yield", "setting": "[1]; Cell 1, 72 hours exposure", "result": 2.02}, {"measurement": "Detection Rate, ^155Gd", "setting": "[1]; [6]", "result": 0.41, "unit": "Counts/s"}, {"measurement": "Detection Rate, ^155GdO", "setting": "[1]; [6]", "result": 0.63, "unit": "Counts/s"}, {"measurement": "Detection Rate, ^156Gd", "setting": "[1]; [6]", "result": 0.91, "unit": "Counts/s"}, {"measurement": "Detection Rate, ^156GdO", "setting": "[1]; [6]", "result": 0.91, "unit": "Counts/s"}, {"measurement": "Detection Rate, ^157GdO", "setting": "[1]; [6]", "result": 2.08, "unit": "Counts/s"}, {"measurement": "Detection Rate, ^158Gd", "setting": "[1]; [6]", "result": 0.89, "unit": "Counts/s"}, {"measurement": "Detection Rate, ^160Gd", "setting": "[1]; [6]", "result": 0.68, "unit": "Counts/s"}, {"measurement": "Detection Rate, ^160GdO", "setting": "[1]; [6]", "result": 0.94, "unit": "Counts/s"}, {"measurement": "Detection Rate, total Gd ion yield", "setting": "[1]; [6]", "result": 6.44, "unit": "Counts/s"}, {"measurement": "Detection Rate, ^155Gd", "setting": "[1]; [7]", "result": 1.03, "unit": "Counts/s"}, {"measurement": "Detection Rate, ^155GdO", "setting": "[1]; [7]", "result": 1.59, "unit": "Counts/s"}, {"measurement": "Detection Rate, ^156Gd", "setting": "[1]; [7]", "result": 1.72, "unit": "Counts/s"}, {"measurement": "Detection Rate, ^156GdO", "setting": "[1]; [7]", "result": 1.85, "unit": "Counts/s"}, {"measurement": "Detection Rate, ^157GdO", "setting": "[1]; [7]", "result": 2.23, "unit": "Counts/s"}, {"measurement": "Detection Rate, ^158Gd", "setting": "[1]; [7]", "result": 1.36, "unit": "Counts/s"}, {"measurement": "Detection Rate, ^160Gd", "setting": "[1]; [7]", "result": 1.35, "unit": "Counts/s"}, {"measurement": "Detection Rate, ^160GdO", "setting": "[1]; [7]", "result": 1.88, "unit": "Counts/s"}, {"measurement": "Detection Rate, total Gd ion yield", "setting": "[1]; [7]", "result": 12.98, "unit": "Counts/s"}, {"measurement": "Ratio nucleus:cytoplasm, ^155Gd", "setting": "[1]; Cell 2, 72 hours exposure", "result": 1.60}, {"measurement": "Ratio nucleus:cytoplasm, ^155GdO", "setting": "[1]; Cell 2, 72 hours exposure", "result": 1.34}, {"measurement": "Ratio nucleus:cytoplasm, ^156Gd", "setting": "[1]; Cell 2, 72 hours exposure", "result": 1.86}, {"measurement": "Ratio nucleus:cytoplasm, ^156GdO", "setting": "[1]; Cell 2, 72 hours exposure", "result": 1.41}, {"measurement": "Ratio nucleus:cytoplasm, ^157GdO", "setting": "[1]; Cell 2, 72 hours exposure", "result": 1.56}, {"measurement": "Ratio nucleus:cytoplasm, ^158Gd", "setting": "[1]; Cell 2, 72 hours exposure", "result": 1.84}, {"measurement": "Ratio nucleus:cytoplasm, ^160Gd", "setting": "[1]; Cell 2, 72 hours exposure", "result": 1.63}, {"measurement": "Ratio nucleus:cytoplasm, ^160GdO", "setting": "[1]; Cell 2, 72 hours exposure", "result": 1.72}, {"measurement": "Ratio nucleus:cytoplasm, total Gd ion yield", "setting": "[1]; Cell 2, 72 hours exposure", "result": 1.60}, {"measurement": "Detection Rate, ^155Gd", "setting": "[1]; [8]", "result": 0.23, "unit": "Counts/s"}, {"measurement": "Detection Rate, ^155GdO", "setting": "[1]; [8]", "result": 0.38, "unit": "Counts/s"}, {"measurement": "Detection Rate, ^156Gd", "setting": "[1]; [8]", "result": 0.37, "unit": "Counts/s"}, {"measurement": "Detection Rate, ^156GdO", "setting": "[1]; [8]", "result": 0.51, "unit": "Counts/s"}, {"measurement": "Detection Rate, ^157GdO", "setting": "[1]; [8]", "result": 0.57, "unit": "Counts/s"}, {"measurement": "Detection Rate, ^158Gd", "setting": "[1]; [8]", "result": 0.32, "unit": "Counts/s"}, {"measurement": "Detection Rate, ^160Gd", "setting": "[1]; [8]", "result": 0.33, "unit": "Counts/s"}, {"measurement": "Detection Rate, ^160GdO", "setting": "[1]; [8]", "result": 0.5, "unit": "Counts/s"}, {"measurement": "Detection Rate, total Gd ion yield", "setting": "[1]; [8]", "result": 3.21, "unit": "Counts/s"}, {"measurement": "Detection Rate, ^155Gd", "setting": "[1]; [9]", "result": 0.37, "unit": "Counts/s"}, {"measurement": "Detection Rate, ^155GdO", "setting": "[1]; [9]", "result": 0.51, "unit": "Counts/s"}, {"measurement": "Detection Rate, ^156Gd", "setting": "[1]; [9]", "result": 0.69, "unit": "Counts/s"}, {"measurement": "Detection Rate, ^156GdO", "setting": "[1]; [9]", "result": 0.72, "unit": "Counts/s"}, {"measurement": "Detection Rate, ^157GdO", "setting": "[1]; [9]", "result": 0.89, "unit": "Counts/s"}, {"measurement": "Detection Rate, ^158Gd", "setting": "[1]; [9]", "result": 0.59, "unit": "Counts/s"}, {"measurement": "Detection Rate, ^160Gd", "setting": "[1]; [9]", "result": 0.54, "unit": "Counts/s"}, {"measurement": "Detection Rate, ^160GdO", "setting": "[1]; [9]", "result": 0.86, "unit": "Counts/s"}, {"measurement": "Detection Rate, total Gd ion yield", "setting": "[1]; [9]", "result": 5.13, "unit": "Counts/s"}, {"measurement": "total Gd ion yield", "setting": "[1]; non-etched cell at the nucleus position, 72 hours exposure, unsputtered sample", "result": 0.055, "unit": "cts/s"}, {"measurement": "total Gd ion yield from the cell membrane", "setting": "[1]; non-etched cell, 72 hours exposure, after 30 second sputtering", "result": 0.182, "unit": "cts/s"}, {"measurement": "total Gd ion yield", "setting": "[1]; non-etched cell, 72 hours exposure, after 16 minute sputtering to penetrate about 1 pm into the nucleus", "result": 1.844, "unit": "cts/s"}, {"measurement": "immediate loss of Gd from the cell bodies after wash-out", "setting": "[2]; FIG. 4", "result": "about 80%"}, {"measurement": "intracellular retained Gd concentration", "setting": "[2]; then two to four hours in physiological solution", "result": 140, "unit": "µg/mL"}, {"measurement": "LD50", "setting": "[3]", "result": 20, "unit": "mmol/kg"}, {"measurement": "intravascular hemolysis", "setting": "[4]", "result": "weak, reversible intravascular hemolysis"}, {"measurement": "growth and morphology after re-plating", "setting": "[5]; cells exposed 120 hours, re-plated, after one week", "result": "grew normally"}, {"measurement": "cytotoxic or cytostatic effect (cell counting vs. unexposed controls)", "setting": "[5]; different concentrations of Gd-DTPA, 72 hours", "result": "not cytotoxic or cytostatic"}, {"measurement": "cytotoxic or cytostatic effect (cell counting vs. control)", "setting": "[5]; exposed for up to 120 hours", "result": "did not show any cytotoxic or cytostatic effect; also recorded: no toxic effects; also recorded: no effect on cell survival"}]}
